Reference: patent US20210045385A1, “PYRIDAZINONE-SUBSTITUTED KETOXIMES AS HERBICIDES” (FMC Corporation, priority 2018, published 2021)

Legend:
Format in all cases: in vivo
[1] = system: pigweed (Amaranthus retroflexus); test: Test C preemergence, visual plant response rating; conditions: Test C, 0 is no effect, 100 is complete control
How it was run: (§1)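 Visual injury on a 0 (no effect) to 100 (complete control) scale versus untreated controls, scored approximately 10 d after treatment under greenhouse conditions. Treatments used surfactant-containing non-phytotoxic solvent formulations, sprayed onto loam–sand soil preemergence or onto one- to two-leaf plants 2–10 cm tall postemergence.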

[2] = system: barnyardgrass (Echinochloa crus-galli); test: Test C preemergence, visual plant response rating; conditions: Test C, 0 is no effect, 100 is complete control
How it was run: as §1

kochia (Bassia scoparia) [3] = test: Test C preemergence, visual plant response rating; conditions: Test C, 0 is no effect, 100 is complete control
How it was run: as §1

[4] = system: ragweed (common ragweed, Ambrosia artemisiifolia); test: Test C preemergence, visual plant response rating; conditions: Test C, 0 is no effect, 100 is complete control
How it was run: as §1

[5] = system: Italian ryegrass (Lolium mutiflorum); test: Test C preemergence, visual plant response rating; conditions: Test C, 0 is no effect, 100 is complete control
How it was run: as §1

[6] = system: foxtail, giant (giant foxtail, Setaria faberi); test: Test C preemergence, visual plant response rating; conditions: Test C, 0 is no effect, 100 is complete control
How it was run: as §1

[7] = system: pigweed (Amaranthus retroflexus); test: Test C postemergence, visual plant response rating
How it was run: as §1

[8] = system: wheat (Triticum aestivum); test: Test C postemergence, visual plant response rating
How it was run: as §1

[9] = system: barnyardgrass (Echinochloa crus-galli); test: Test C postemergence, visual plant response rating
How it was run: as §1

[10] = system: galium (catchweed bedstraw, Galium aparine); test: Test C postemergence, visual plant response rating
How it was run: as §1

corn (Zea mays) = test: Test C postemergence, visual plant response rating
How it was run: as §1

kochia (Bassia scoparia) [11] = test: Test C postemergence, visual plant response rating
How it was run: as §1

[12] = system: blackgrass (Alopecurus myosuroides); test: Test C postemergence, visual plant response rating
How it was run: as §1

[13] = system: ragweed (common ragweed, Ambrosia artemisiifolia); test: Test C postemergence, visual plant response rating
How it was run: as §1

[14] = system: Italian ryegrass (Lolium mutiflorum); test: Test C postemergence, visual plant response rating
How it was run: as §1

[15] = system: foxtail, giant (giant foxtail, Setaria faberi); test: Test C postemergence, visual plant response rating
How it was run: as §1

[16] = system: sedge umbrella (small-flower umbrella sedge, Cyperus difformis); test: Test D flooded paddy test, visual plant response rating; conditions: 250 g ai/ha, scale 0 to 100 (0 no effect, 100 complete control), 13 to 15 d
How it was run: (§2)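 Rating is visual, on a 0 (no effect) to 100 (complete control) scale versus controls, taken 13 to 15 d after treatment in a greenhouse. Treatment went into paddy water kept 3 cm above the soil surface, with plants at the 2-leaf stage.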

[17] = system: barnyardgrass (Echinochloa crus-galli); test: as above; conditions: 250 g ai/ha, scale 0 to 100 (0 no effect, 100 complete control), 13 to 15 d
How it was run: as §2

rice (Oryza sativa) = test: as above; conditions: 250 g ai/ha, scale 0 to 100 (0 no effect, 100 complete control), 13 to 15 d
How it was run: as §2

[18] = system: duck salad (Heteranthera limosa); test: as above; conditions: 250 g ai/ha, scale 0 to 100 (0 no effect, 100 complete control), 13 to 15 d
How it was run: as §2

[19] = Test C, postemergence, 125 g ai/ha

SMILES | Pigweed plant response rating (0 to 100 scale) ([1]; 31 g ai/ha) | Pigweed plant response rating (0 to 100 scale) ([1]; 125 g ai/ha) | Barnyardgrass plant response rating (0 to 100 scale) ([2]; 31 g ai/ha) | Barnyardgrass plant response rating (0 to 100 scale) ([2]; 125 g ai/ha) | Kochia plant response rating (0 to 100 scale) (kochia (Bassia scoparia) [3]; 31 g ai/ha) | Kochia plant response rating (0 to 100 scale) (kochia (Bassia scoparia) [3]; 125 g ai/ha) | Ragweed plant response rating (0 to 100 scale) ([4]; 31 g ai/ha) | Ragweed plant response rating (0 to 100 scale) ([4]; 125 g ai/ha) | Ryegrass, Italian plant response rating (0 to 100 scale) ([5]; 31 g ai/ha) | Ryegrass, Italian plant response rating (0 to 100 scale) ([5]; 125 g ai/ha) | Foxtail, Giant plant response rating (0 to 100 scale) ([6]; 31 g ai/ha) | Foxtail, Giant plant response rating (0 to 100 scale) ([6]; 125 g ai/ha) | Pigweed plant response rating (0 to 100 scale) ([7]; Postemergence, 31 g ai/ha) | Pigweed plant response rating (0 to 100 scale) [7, 19] | Wheat plant response rating (0 to 100 scale) ([8]; Postemergence, 31 g ai/ha) | Wheat plant response rating (0 to 100 scale) [8, 19] | Barnyardgrass plant response rating (0 to 100 scale) ([9]; Postemergence, 31 g ai/ha) | Barnyardgrass plant response rating (0 to 100 scale) [9, 19] | Galium plant response rating (0 to 100 scale) ([10]; Postemergence, 31 g ai/ha) | Galium plant response rating (0 to 100 scale) [10, 19] | other results
CO/N=C(/c1cc(Cl)c(F)c(Cl)c1)c1c(O)c(C)nn(C)c1=O [Compound 289] | 0 | 40 | 0 | 0 | 0 | 0 | 0 | 30 | 0 | 30 | 0 | 10 | 0 | 0 | 0 | 0 | 0 | 10 | 70 | 100 | Corn plant response rating (0 to 100 scale) (corn (Zea mays); Postemergence, 31 g ai/ha): 0; Corn plant response rating (0 to 100 scale) (corn (Zea mays); [19]): 0; Kochia plant response rating (0 to 100 scale) (kochia (Bassia scoparia) [11]; Postemergence, 31 g ai/ha): 20; Kochia plant response rating (0 to 100 scale) (kochia (Bassia scoparia) [11]; [19]): 40; Blackgrass plant response rating (0 to 100 scale) ([12]; Postemergence, 31 g ai/ha): 0; Blackgrass plant response rating (0 to 100 scale) [12, 19]: 0; Ragweed plant response rating (0 to 100 scale) ([13]; Postemergence, 31 g ai/ha): 40; Ragweed plant response rating (0 to 100 scale) [13, 19]: 90; Ryegrass, Italian plant response rating (0 to 100 scale) ([14]; Postemergence, 31 g ai/ha): 0; Ryegrass, Italian plant response rating (0 to 100 scale) [14, 19]: 60; Foxtail, Giant plant response rating (0 to 100 scale) ([15]; Postemergence, 31 g ai/ha): 0; Foxtail, Giant plant response rating (0 to 100 scale) [15, 19]: 0; Plant response rating, Sedge, Umbrella (Flood) [16]: 0; Plant response rating, Barnyardgrass (Flood) [17]: 0; Plant response rating, Rice (Flood) (rice (Oryza sativa)): 0; Plant response rating, Ducksalad (Flood) [18]: 0
CO/N=C(\c1cc(Cl)c(F)c(Cl)c1)c1c(O)c(C)nn(C)c1=O [Compound 290] | 10 | 30 | 0 | 0 | 0 | 0 | 20 | 90 | 0 | 40 | 0 | 20 | 0 | 0 | 0 | 0 | 0 | 20 | 70 | 100 | Corn plant response rating (0 to 100 scale) (corn (Zea mays); Postemergence, 31 g ai/ha): 0; Corn plant response rating (0 to 100 scale) (corn (Zea mays); [19]): 0; Kochia plant response rating (0 to 100 scale) (kochia (Bassia scoparia) [11]; Postemergence, 31 g ai/ha): 0; Kochia plant response rating (0 to 100 scale) (kochia (Bassia scoparia) [11]; [19]): 20; Blackgrass plant response rating (0 to 100 scale) ([12]; Postemergence, 31 g ai/ha): 0; Blackgrass plant response rating (0 to 100 scale) [12, 19]: 0; Ragweed plant response rating (0 to 100 scale) ([13]; Postemergence, 31 g ai/ha): 20; Ragweed plant response rating (0 to 100 scale) [13, 19]: 50; Ryegrass, Italian plant response rating (0 to 100 scale) ([14]; Postemergence, 31 g ai/ha): 0; Ryegrass, Italian plant response rating (0 to 100 scale) [14, 19]: 60; Foxtail, Giant plant response rating (0 to 100 scale) ([15]; Postemergence, 31 g ai/ha): 0; Foxtail, Giant plant response rating (0 to 100 scale) [15, 19]: 0; Plant response rating, Sedge, Umbrella (Flood) [16]: 0; Plant response rating, Barnyardgrass (Flood) [17]: 0; Plant response rating, Rice (Flood) (rice (Oryza sativa)): 0; Plant response rating, Ducksalad (Flood) [18]: 0
C#CCO/N=C(/c1cc(Cl)cc(Br)c1)c1c(O)c(C)nn(C)c1=O [Compound 291] | 10 | 80 | 0 | 100 | 0 | 90 | 60 | 100 | 10 | 100 | 50 | 100 | 30 | 60 | 30 | 90 | 20 | 70 | 100 | 100 | Corn plant response rating (0 to 100 scale) (corn (Zea mays); Postemergence, 31 g ai/ha): 20; Corn plant response rating (0 to 100 scale) (corn (Zea mays); [19]): 30; Kochia plant response rating (0 to 100 scale) (kochia (Bassia scoparia) [11]; Postemergence, 31 g ai/ha): 50; Kochia plant response rating (0 to 100 scale) (kochia (Bassia scoparia) [11]; [19]): 100; Blackgrass plant response rating (0 to 100 scale) ([12]; Postemergence, 31 g ai/ha): 0; Blackgrass plant response rating (0 to 100 scale) [12, 19]: 70; Ragweed plant response rating (0 to 100 scale) ([13]; Postemergence, 31 g ai/ha): 100; Ragweed plant response rating (0 to 100 scale) [13, 19]: 100; Ryegrass, Italian plant response rating (0 to 100 scale) ([14]; Postemergence, 31 g ai/ha): 90; Ryegrass, Italian plant response rating (0 to 100 scale) [14, 19]: 100; Foxtail, Giant plant response rating (0 to 100 scale) ([15]; Postemergence, 31 g ai/ha): 40; Foxtail, Giant plant response rating (0 to 100 scale) [15, 19]: 80; Plant response rating, Sedge, Umbrella (Flood) [16]: 45; Plant response rating, Barnyardgrass (Flood) [17]: 0; Plant response rating, Rice (Flood) (rice (Oryza sativa)): 0; Plant response rating, Ducksalad (Flood) [18]: 25
C#CCO/N=C(\c1cc(Cl)cc(Br)c1)c1c(O)c(C)nn(C)c1=O [Compound 292] | 50 | 100 | 60 | 100 | 30 | 100 | 90 | 100 | 80 | 100 | 70 | 100 | 60 | 90 | 60 | 100 | 30 | 70 | 100 | 100 | Corn plant response rating (0 to 100 scale) (corn (Zea mays); Postemergence, 31 g ai/ha): 0; Corn plant response rating (0 to 100 scale) (corn (Zea mays); [19]): 40; Kochia plant response rating (0 to 100 scale) (kochia (Bassia scoparia) [11]; Postemergence, 31 g ai/ha): 60; Kochia plant response rating (0 to 100 scale) (kochia (Bassia scoparia) [11]; [19]): 100; Blackgrass plant response rating (0 to 100 scale) ([12]; Postemergence, 31 g ai/ha): 0; Blackgrass plant response rating (0 to 100 scale) [12, 19]: 80; Ragweed plant response rating (0 to 100 scale) ([13]; Postemergence, 31 g ai/ha): 100; Ragweed plant response rating (0 to 100 scale) [13, 19]: 100; Ryegrass, Italian plant response rating (0 to 100 scale) ([14]; Postemergence, 31 g ai/ha): 100; Ryegrass, Italian plant response rating (0 to 100 scale) [14, 19]: 100; Foxtail, Giant plant response rating (0 to 100 scale) ([15]; Postemergence, 31 g ai/ha): 60; Foxtail, Giant plant response rating (0 to 100 scale) [15, 19]: 100; Plant response rating, Sedge, Umbrella (Flood) [16]: 55; Plant response rating, Barnyardgrass (Flood) [17]: 0; Plant response rating, Rice (Flood) (rice (Oryza sativa)): 0; Plant response rating, Ducksalad (Flood) [18]: 45
